Consider seven molecules from patent publication US10640545B2 (THE GOVERNORS OF THE UNIVERSITY OF ALBERTA, priority 2017, dated 2020).

Where “and” joins values, the source holds several entries; their conditions need not be identical. Identical values can stand only once. Where a SMILES comes first, the peptide text is derived from it. [ ]: non-standard residue; d: D form. The star is where a group is joined. Phe(4-Br) = N[C@@H](Cc1ccc(Br)cc1)C(=O)O; Fmoc = O=C(OCC1c2ccccc2-c2ccccc21)*; PEG6 = NCCOCCOCCOCCOCCOCCOCCC(=O)O; NMeL = CN[C@@H](CC(C)C)C(=O)O; Nle = CCCC[C@H](N)C(=O)O; Aib = CC(C)(N)C(=O)O A value given as a limit tells only on which side of the number the result lay.

Series [1] addresses neprilysin (NEP) (Homo sapiens, UniProt P08473). Briefly: Neprilysin degradation assay (LC-MS, quantitative). Conditions: human, pH 7.5. As for the experimental part:
This experiment compared the in vitro NEP stability of the Arg/Leu peptides of the embodiments to native apelin isoforms and their A2 substituted counterparts. Peptides were incubated with recombinant human NEP (rhNEP, Sino Biological) at 37° C. for up to 72 h, and the extent of degradation was analyzed via LC-MS because of the overlapping elution patterns of peptide fragments. […] (McKinnie, S. M. K., et al. ChemBioChem: 17, 1495-1498 (2016)). […] (Dion, N., et al., Biochem. J.: 311, 623-627 (1995); Bateman Jr., R. C., et al., J. Biol. Chem.: 264, 6151-6157 (1989); McMurray, J. J. et al., J. Med.: 371, 993-1004 (2014)).
Apelin peptides were dissolved in Milli-Q water (1 mM). Recombinant human neprilysin (rhNEP, Sino Biological) was reconstituted in Tris buffer (100 mM Tris, 100 mM NaCl, 10 μM ZnCl2, pH 7.5). To initiate the assay, rhNEP was diluted in Tris buffer (3.1 nM final concentration), and preincubated at 37° C. for 10 minutes prior to the addition of 5 μL of apelin peptide (1 mM) and 1.5 μL internal standard dansyl-Tyr-Val-Gly-OH (1 mM). Aliquots (10 μL) were removed at 0, 1, 4, 24, and 72 h, quenched with 0.1 M EDTA (10 μL), diluted to 100 μL with Milli-Q water and analyzed by LC-MS. Assays were performed in triplicate (n=3) for each time point. Integrated peak areas of the parent apelin peptide and internal standard derived from LC-MS analyses, were extracted using Mass Hunter software (version B.04.00) and compared in positive extracted ion count modus (+EIC, extracted-ion chromatogram). […] (apelin:dansyl-YVG), to the same ratio at the different assay time points. The decrease in apelin:dansyl-YVG ratio was converted to a percentage of cleaved peptide over time.
The extent of degradation was analyzed via LC-MS because of the overlapping elution patterns of peptide fragments (NEP).
Native apelin-17 (2) and apelin peptides 5, 54, 56, 57, 58 and 59 were dissolved in Milli-Q water (1 mM). Recombinant human neprilysin (rhNEP, Sino Biological) was reconstituted in Tris buffer (100 mM Tris, 100 mM NaCl, 10 μM ZnCl2, pH 7.5). To initiate the assay, rhNEP was diluted in Tris buffer (3.1 nM final concentration) and preincubated at 37° C. for 10 min prior to the addition of 5 μL of apelin peptide (1 mM) and 1.5 μL of internal standard dansyl-Tyr-Val-Gly-OH (1 mM). Aliquots (10 μL) were removed at 0, 1, 4, 24, and 72 h, quenched with 0.1 M EDTA (10 μL), diluted to 100 μL with Milli-Q water, and analyzed by LC-MS. Assays were performed in triplicate (n=3) for each time point. Integrated peak areas of the parent apelin peptide and internal standard derived from LC-MS analyses were extracted using Mass Hunter software (version B.04.00) and compared in positive extracted ion count modus (+EIC). The extent of proteolysis was determined by comparing the initial (0 h) ratio of the integrated extracted ions of the parent apelin peptide to the internal dansyl-YVG standard (apelin/dansyl-YVG) to the same ratio at the different assay time points. The decrease in apelin/dansyl-YVG ratio was converted to a percentage of cleaved peptide over time.

The target of series [2] is Recombinant Human Neprilysin (Homo sapiens, UniProt P08473). Kind of series: Neprilysin qualitative cleavage assay (MALDI-TOF). Conditions: rhNEP 2 ng/μL, 37° C., first degradation products by MALDI-TOF. As for the experimental part: Native apelin-17 (2) and apelin peptides 5, 54, 56, 57, 58 and 59 were dissolved in Milli-Q water (1 mM). Recombinant Human Neprilysin (rhNEP, Sino Biological) was reconstituted in Tris buffer (100 mM Tris, 100 mM NaCl, 10 mM ZnCl2, pH 7.5). To initiate the assays, rhNEP was diluted in Tris buffer to a 2 ng/μL final concentration, and pre-incubated at 37° C. for 10 minutes prior to the addition of 5 μL of apelin peptide (1 mM). Aliquots (1 μL) were taken at 1, 2, 4, 6, 12, 24, 36, and 48 hours and analyzed with MALDI-TOF mass spectrometry to qualitatively determine the time point at which degradation products could be observed.

Series [3] addresses Human plasma kallikrein KLKB1 (Homo sapiens, UniProt P03952). Kind of series: Plasma kallikrein KLKB1 qualitative cleavage assay (MALDI-TOF). Conditions: KLKB1, 37° C., first degradation products by MALDI-TOF. As for the experimental part:
Native apelin-17 (2) and apelin peptides 5, 56, 57, 58 and 59 were dissolved in Milli-Q water (1 mM). Human plasma kallikrein KLKB1 were each reconstituted in Tris buffer (100 mM TrisHCl, 10 mM CaCl2), 150 mM NaCl) and diluted with Tris buffer (50 mM TrisHCl, 250 mM NaCl) to give a KLKB1 concentration of […]. The KLKB1 enzyme was then preincubated at 37° C. for 10 minutes prior to the addition of 5 μL of apelin peptide (1 mM). Aliquots (1 μL) were taken at 1, 2, 4, 6, 12, 24, 36, and 48 hours and analyzed with MALDI-TOF mass spectrometry to qualitatively determine the time point at which degradation products could be observed (Table 4).

For series [4], the target named is T1, KLKB1 (Homo sapiens, UniProt P03952). Kind of series: In vitro KLKB1 stability (half-life). The class given is in vitro ADME. Details: purchased Novoprotein. The settings on record: human; rhKLKB1, 37° C.; read-out: t1/2 (rhKLKB1, h) (converted).
Series [5] deals with neprilysin (rhNEP). Briefly: recombinant human NEP (rhNEP, Sino Biological) in Tris buffer (100 mM Tris, 100 mM NaCl, 10 μM ZnCl2, pH 7.5). The settings on record: 37° C, up to 72 h.
In series [6] the test system is recombinant human neprilysin (rhNEP, Sino Biological). Kind of series: rhNEP diluted in Tris buffer (100 mM Tris, 100 mM NaCl, 10 μM ZnCl2, pH 7.5), 3.1 nM final concentration. Conditions: 37° C., up to 72 h.
Series [7] can be described thus: human blood plasma (20 μL of plasma). Conditions: 37° C., up to 60 min.
Series [8] deals with KLKB1 (rhKLKB1, Novoprotein). Kind of series: Human plasma kallikrein KLKB1 in Tris buffer, KLKB1 concentration of 2 ng/pL. The settings on record: 37° C., up to 48 hours.
Series [9] deals with T1, KLKB1. The settings on record: enzyme KLKB1, data from Gozzo et al. 2006; cited from earlier work.

T1 sequence (P03952 20-638): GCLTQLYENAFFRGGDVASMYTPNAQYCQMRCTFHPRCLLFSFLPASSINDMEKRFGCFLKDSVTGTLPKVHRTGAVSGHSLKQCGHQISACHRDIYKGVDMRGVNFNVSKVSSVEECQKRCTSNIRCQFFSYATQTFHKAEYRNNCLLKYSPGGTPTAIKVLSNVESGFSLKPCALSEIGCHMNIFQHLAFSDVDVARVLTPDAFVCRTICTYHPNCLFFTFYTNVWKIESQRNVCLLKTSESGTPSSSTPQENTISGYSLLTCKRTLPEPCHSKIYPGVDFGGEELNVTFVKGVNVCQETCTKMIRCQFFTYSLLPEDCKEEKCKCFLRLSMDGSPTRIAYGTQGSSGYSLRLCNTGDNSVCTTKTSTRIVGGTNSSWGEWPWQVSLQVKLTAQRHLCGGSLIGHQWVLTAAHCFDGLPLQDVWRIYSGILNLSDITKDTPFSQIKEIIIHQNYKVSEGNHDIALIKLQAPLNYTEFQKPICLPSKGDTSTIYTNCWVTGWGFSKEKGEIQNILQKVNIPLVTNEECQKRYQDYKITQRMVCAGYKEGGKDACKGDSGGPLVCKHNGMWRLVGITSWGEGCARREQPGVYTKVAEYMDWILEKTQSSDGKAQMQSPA
Chain of Human plasma kallikrein KLKB1 (P03952 20-638): as above
Chain of neprilysin (NEP) (P08473 whole entry, the tested form may be a part, canonical isoform): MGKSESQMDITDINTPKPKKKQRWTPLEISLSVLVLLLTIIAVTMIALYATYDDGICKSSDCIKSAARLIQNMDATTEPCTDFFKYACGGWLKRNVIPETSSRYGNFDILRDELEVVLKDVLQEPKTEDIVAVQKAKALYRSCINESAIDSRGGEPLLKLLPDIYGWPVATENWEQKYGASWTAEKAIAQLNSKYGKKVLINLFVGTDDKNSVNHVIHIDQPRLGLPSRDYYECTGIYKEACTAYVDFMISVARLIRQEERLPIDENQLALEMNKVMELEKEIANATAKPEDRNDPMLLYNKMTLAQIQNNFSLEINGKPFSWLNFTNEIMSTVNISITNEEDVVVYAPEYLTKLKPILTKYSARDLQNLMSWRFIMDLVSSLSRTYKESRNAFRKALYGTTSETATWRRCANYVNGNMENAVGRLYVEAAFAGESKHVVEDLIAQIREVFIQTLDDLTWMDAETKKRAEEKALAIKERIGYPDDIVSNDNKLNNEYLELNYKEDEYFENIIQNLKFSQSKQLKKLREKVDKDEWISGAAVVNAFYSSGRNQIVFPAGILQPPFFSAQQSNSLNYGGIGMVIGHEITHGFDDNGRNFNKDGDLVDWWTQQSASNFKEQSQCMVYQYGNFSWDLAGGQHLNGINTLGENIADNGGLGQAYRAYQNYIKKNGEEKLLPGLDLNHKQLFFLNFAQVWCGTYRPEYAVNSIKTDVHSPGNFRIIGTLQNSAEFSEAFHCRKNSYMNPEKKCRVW
Chain of Recombinant Human Neprilysin (P08473 whole entry): as the sequence (P08473 whole entry, the tested form may be a part, canonical isoform) above

With `CCCC[C@H](NC(=O)[C@@H]1CCCN1C(=O)CNC(=O)[C@H](CCCCN)NC(=O)[C@H](Cc1cnc[nH]1)NC(=O)[C@H](CO)NC(=O)[C@H](CC(C)C)NC(=O)[C@H](CCCNC(=N)N)NC(=O)[C@@H]1CCCN1C(=O)[C@H](CCCNC(=N)N)NC(=O)[C@H](CCC(N)=O)NC(=O)[C@H](CCCNC(=N)N)NC(=O)[C@H](CCCNC(=N)N)NC(=O)[C@H](Cc1ccccc1)NC(=O)[C@H](CCCCN)NC(=O)CCOCCOCCOCCOCCOCCOCCNC(=O)OCC1c2ccccc2-c2ccccc21)C(=O)NC(C)(C)C(=O)N[C@@H](Cc1ccc(Br)cc1)C(=O)O` [Peptide 57] ({Fmoc-PEG6}-KFRRQRPRLSHKGP[Nle][Aib][Phe(4-Br)]-OH), the figures for the half-life in series [1] and in series [4] were above 1800 min and 1.4 h, respectively. Further, in series [2], the “Degradation Onset Timepoint with NEP” value amounted to 12 h. The “Degradation Onset Timepoint with KLKB1” value in [3] came out at 1 h.
Take `CCCC[C@H](NC(=O)[C@@H]1CCCN1C(=O)CNC(=O)[C@H](CCCCN)NC(=O)[C@H](Cc1cnc[nH]1)NC(=O)[C@H](CO)NC(=O)[C@H](CC(C)C)N(C)C(=O)[C@H](CCCNC(=N)N)NC(=O)[C@@H]1CCCN1C(=O)[C@H](CCCNC(=N)N)NC(=O)[C@H](CCC(N)=O)NC(=O)[C@H](CCCNC(=N)N)NC(=O)[C@H](CCCNC(=N)N)NC(=O)[C@H](Cc1ccccc1)NC(=O)[C@H](CCCCN)NC(=O)CCOCCOCCOCCOCCOCCOCCNC(=O)OCC1c2ccccc2-c2ccccc21)C(=O)NC(C)(C)C(=O)N[C@@H](Cc1ccc(Br)cc1)C(=O)O` [Peptide 59] ({Fmoc-PEG6}-KFRRQRPR[NMeL]SHKGP[Nle][Aib][Phe(4-Br)]-OH): the half-life in series [1] is above 1800 min; in [4] it was 2.9 h. Also, the “Degradation Onset Timepoint with NEP” value in series [2] was above 36 h. Besides, in [3], the “Degradation Onset Timepoint with KLKB1” value amounted to 2 h.
As to “Lys-Phe-Arg-Arg-Gln-Arg-Pro-Arg-D-Leu-Ser-His-Lys-Gly-Pro-Nle-Aib-paraBrPhe”, the cleaved bond entry in series [5] is recorded as “Nle15-Aib16, minor”; in [6], “Nle15-Aib16, minor”.
In the case of “Lys-Phe-Arg-Arg-Gln-Arg-Pro-Arg-Leu-Ser-His-Lys-Gly-Pro-Nle-Aib-paraBrPhe”, the fragment found in series [7] is 1-3 and 4-17. Moreover, the cleaved bond result in [8] is given as “Arg3-Arg4, <30 min”.
Consider “Lys-Phe-Arg-Arg-Gln-Arg-Pro-azaArg-Leu-Ser-His-Lys-Gly-Pro-Nle-Aib-paraBrPhe”, for which, in [7], the not cleaved is 94 ± 3 % apelin at 60 min. Moreover, the cleaved bond result in series [6] is on record as “Nle15-Aib16, minor”.
Take “pGlu-Arg-Pro-Arg-D-Leu-Ser-His-Lys-Gly-Pro-Nle-Aib-paraBrPhe”: the cleaved bond entry is reported as “Nle11-Aib12, minor” in series [5] and “Nle11-Aib12, minor” in [6].

B1: Kininogen: KLKB1 substrate, kinetic data from Gozzo et al. (protein, UniProt P01042 19-644, looked up)
Kininogen-1: QESQSEEIDCNDKDLFKAVDAALKKYNSQNQSNNQFVLYRITEATKTVGSDTFYSFKYEIKEGDCPVQSGKTWQDCEYKDAAKAATGECTATVGKRSSTKFSVATQTCQITPAEGPVVTAQYDCLGCVHPISTQSPDLEPILRHGIQYFNNNTQHSSLFMLNEVKRAQRQVVAGLNFRITYSIVQTNCSKENFLFLTPDCKSLWNGDTGECTDNAYIDIQLRIASFSQNCDIYPGKDFVQPPTKICVGCPRDIPTNSPELEETLTHTITKLNAENNATFYFKIDNVKKARVQVVAGKKYFIDFVARETTCSKESNEELTESCETKKLGQSLDCNAEVYVVPWEKKIYPTVNCQPLGMISLMKRPPGFSPFRSSRIGEIKEETTVSPPHTSMAPAQDEERDSGKEQGHTRRHDWGHEKQRKHNLGHGHKHERDQGHGHQRGHGLGHGHEQQHGLGHGHKFKLDDDLEHQGGHVLDHGHKHKHGHGHGKHKNKGKKNGKHNGWKTEHLASSSEDSTTPSAQTQEKTEGPTPIPSLAKPGVTVTFSDFQDSDLIATMMPPISPAPIQSDDDWIPDIQIDPNGLSFNPISDFPDTTSPKCPGRPWKSVSEINPTTQMKESYYFDLTDGLS
As a reminder, the Km is the concentration of substrate that gives half-maximal velocity. Usually kcat stands for the maximal rate divided by the concentration of active sites. B1: in series [9], the Km is 750 nM and the “kcat” value was 0.031 s⁻¹.
